Experimental data from patent publication US9856230B2 (University of Sunderland, priority 2012, dated 2018).

Key:
[1] = system: HPV-16 immortalized keratinocyte cell line (CCD-1106 KERTr); experiment: cells; type: cell-based; conditions: Homo sapiens; for GI50: CCD-1106 KERTr keratinocytes, read-out: MTT GI50;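 as to all read-outs here: growth inhibition read as spectrophotometric formazan colour from mitochondrial dehydrogenase cleavage of MTT, proportional to viable cell number, modelling psoriatic hyperproliferation, lower values mean stronger antiproliferative activity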
Excerpt: The assay is based on the ability of a mitochondrial dehydrogenase enzyme to cleave the tetrazolium rings of the yellow MTT to form dark blue formazan crystals (MTT reaction scheme). These crystals are mostly impermeable to cell membranes and, consequently, they accumulate in healthy viable cells. The addition of detergent solubilizes the cells, which results in the liberation of purple formazan crystals. The number of viable cells is directly proportional to the level of purple formazan produced. This colour change can be measured by a spectrophotometer enabling quantification of changes in cellular proliferation. Compound activity measured by the MTT assay (or other proliferation related assay) may be given as a GI50 value.
A human papilloma virus-16 (HPV-16) immortalized keratinocyte cell line (CCD-1106 KERTr) was used in the MTT cell viability assay.
Antiproliferative activity is indicated by the MTT GI50 (μM), where a lower value indicates higher activity.

[2] = molecular target: T1, Trx system (thioredoxin/thioredoxin reductase) (Homo sapiens, UniProt Q16881); experiment: Thioredoxin/thioredoxin reductase insulin reduction assay; type: biochemical; conditions: for inhibition at 500 µM: compound at 500 μM, read-out: Inhib. (%) Trx Syst. at 500 μM; for IC50: insulin reduction assay, read-out: Trx System IC50
T1 sequence (Q16881 151-649 limits assumed): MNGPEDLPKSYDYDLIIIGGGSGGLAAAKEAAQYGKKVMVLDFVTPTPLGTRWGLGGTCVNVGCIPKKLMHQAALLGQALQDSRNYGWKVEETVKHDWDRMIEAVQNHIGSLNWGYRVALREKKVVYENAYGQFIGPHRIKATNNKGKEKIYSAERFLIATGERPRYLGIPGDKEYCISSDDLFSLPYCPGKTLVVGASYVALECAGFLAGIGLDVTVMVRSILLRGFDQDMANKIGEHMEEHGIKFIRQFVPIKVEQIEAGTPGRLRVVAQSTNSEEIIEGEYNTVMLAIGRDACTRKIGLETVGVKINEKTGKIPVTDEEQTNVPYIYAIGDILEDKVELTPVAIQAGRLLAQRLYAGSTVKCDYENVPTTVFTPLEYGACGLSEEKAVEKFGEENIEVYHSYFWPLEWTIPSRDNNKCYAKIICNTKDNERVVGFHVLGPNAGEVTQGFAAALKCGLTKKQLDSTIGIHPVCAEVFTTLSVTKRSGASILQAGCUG
Experimental: Thioredoxin/thioredoxin reductase inhibition was measured using the insulin reduction assay (Stevens, M. F. G., Pallis, M., Bradshaw, T. D., Westwell, A. D., Grundy, M., Russell, N, “Induction of apoptosis without redox catastrophe by thioredoxin-inhibitory compounds”, Biochem. Pharmacol. (2003) 66, 1695-1705). […] The first part of the assay involves TrxR reducing oxidized Trx via NADPH. The reduced Trx then reduces disulfide bonds in the insulin, leaving exposed thiol groups, as summarized by the Trx reaction scheme.
The addition of dithionitrobenzoic acid (DTNB) to the free thiol groups of the insulin cleaves the disulfide bond in the DTNB which gives rise to a yellow colour (DTNB reaction scheme). The yellow colour is observed under basic conditions due to the conjugation of electrons between the thiolate anion and the nitro group of thionitrobenzoic acid (TNB). The level of thioredoxin/thioredoxin reductase inhibitory activity is […] proportional to the intensity of the yellow colour.
Addition of DTNB to reduced insulin produces thionitrobenzoic acid (TNB) and a mixed insulin disulfide. DTNB has very little absorbance, but under mild basic conditions TNB forms an anion that gives an intense yellow colour at 412 nm.
Synthesized compounds were tested for thioredoxin/thioredoxin reductase activity using the thioredoxin/thioredoxin reductase insulin assay described above under the heading “Assays”. The compounds were also tested for antiproliferative activity using the MTT assay described above under the heading “Assays”. Theoretical C log P values for the compounds were calculated using ChemDraw. The C log P of a compound is the logarithm of the compound's partition coefficient between n-octanol and water log(coctanol/cwater) and represents a measure of the compound's hydrophilicity and hydrophobicity. […]

Row | Compound | IC50 ([1]; CCD-1106, read-out: IC50 in MTT assay (antiproliferative activity)) | inhibition at 500 µM [2] | GI50 [1] | IC50 [2]
1 | O=C(Nc1ccc(NS(=O)(=O)c2ccc(F)cc2)c(NS(=O)(=O)c2ccc(F)cc2)c1)c1ccco1 [Compound (103)] | 36.2 µM |  |  | 
2 | CC(C)=CCN(CC=C(C)C)Cc1ccc(NS(=O)(=O)c2ccc(C)cc2)c(NS(=O)(=O)c2ccc(C)cc2)c1 [(31), [3,4-bis-(toluene-4-sulfonylamino)benzyl]bis-(3-methyl-but-2-enyl)amine] |  | 70% | 7.9 µM | 
3 | Cc1ccc(S(=O)(=O)Nc2ccc(C=O)cc2NS(=O)(=O)c2ccc(C)cc2)cc1 [(37), 3,4-bis-(toluene-4-sulfonylamino)benzaldehyde] |  | 81% | 12 µM | 374 µM
4 | COC(=O)c1ccc(NS(=O)(=O)c2ccc(Cl)cc2)c(NS(=O)(=O)c2ccc(Cl)cc2)c1 [(27), methyl 3,4-bis-(4-chlorobenzenesulfonylamino)benzoate] |  | 62.3% | 0.64 µM | 277 µM
5 | Cc1ccc(S(=O)(=O)Nc2ccc(C(=O)O)cc2NS(=O)(=O)c2ccc(C)cc2)cc1 [(35), 3,4-bis-(toluene-4-sulfonylamino)benzoic acid] |  | 20% | 67.3 µM | 
6 | CCNC(=O)Nc1ccc(NS(=O)(=O)c2ccc(C)cc2)c(NS(=O)(=O)c2ccc(C)cc2)c1 [(33d), ethyl [3,4-bis(toluene-4-sulfonylamino)]phenyl urea] |  | 88.3% | 55.9 µM | 
7 | COC(=O)c1ccc(NS(=O)(=O)c2ccc(N)cc2)c(NS(=O)(=O)c2ccc(N)cc2)c1 [(19e), methyl 3,4-bis-(4-aminobenzenesulfonylamino)benzoate] |  | 86.7% | > 420 µM | 386 µM
8 | Cc1ccc(S(=O)(=O)Nc2ccc(NC(=O)Nc3ccccc3)cc2NS(=O)(=O)c2ccc(C)cc2)cc1 [(33e), phenyl [3,4-bis(toluene-4-sulfonylamino)]phenyl urea] |  | 0% | 6.2 µM | 
9 | Cc1ccc(S(=O)(=O)Nc2ccc(CN)cc2NS(=O)(=O)c2ccc(C)cc2)cc1 [(30), 3,4-bis(toluene-4-sulfonylamino)benzyl amine] |  | 98.7% | 162 µM | 377 µM
10 | COC(=O)c1ccc(NS(=O)(=O)c2ccc(C(F)(F)F)cc2)c(NS(=O)(=O)c2ccc(C(F)(F)F)cc2)c1 [(19b), methyl 3,4-bis-(4-trifluoromethylbenzenesulfonylamino)benzoate] |  | 33.4% | 5.4 µM | 429 µM
11 | Cc1ccc(S(=O)(=O)Nc2ccc(NC(=O)Cn3ccc(=O)[nH]c3=O)cc2NS(=O)(=O)c2ccc(C)cc2)cc1 [(42), N-[3,4-bis-(toluene-4-sulfonylamino)phenyl]-2-(2,4-dioxo-3,4-dihydro-2H-pyrimidin-1-yl)acetamide] |  | 70.7% | 100 µM | 339 µM
12 | COC(=O)c1ccc(NS(=O)(=O)c2ccc(Cl)s2)c(NS(=O)(=O)c2ccc(Cl)s2)c1 [(25), methyl 3,4-bis-(5-chloro-thiophene-2-sulfonylamino)benzoate] |  | 61% | 1.2 µM | 
13 | Cc1ccc(S(=O)(=O)Nc2ccc(NC(=O)c3cccs3)cc2NS(=O)(=O)c2ccc(C)cc2)cc1 [(55), N-(3,4-bis-(toluene-4-sulfonylamino)phenyl)-2-thiophenecarboxamide] |  | 61.5% | 3.3 µM | 494 µM
14 | Cc1ccc(S(=O)(=O)Nc2ccc(-c3noc(C(C)C)n3)cc2NS(=O)(=O)c2ccc(C)cc2)cc1 [(21d), 1-(5′-isopropyl-1′,2′,4′-oxadiazol-3-yl)-3,4-bis-(toluene-4-sulfonylamino)benzene] |  | 13.9% | 3.2 µM | 
15 | COC(=O)c1ccc(NS(=O)(=O)c2ccc(OC(F)(F)F)cc2)c(NS(=O)(=O)c2ccc(OC(F)(F)F)cc2)c1 [(19c), methyl 3,4-bis-(4-trifluoromethoxybenzenesulfonylamino)benzoate] |  | 43.7% | 2.2 µM | 546 µM
